# Measurements from patent US7812143B2, “Biomarkers for cancer treatment” (Memorial Sloan-Kettering Cancer Center, priority 2006, dated 2010).
# Columns and labels:
# [1] = test system: V600E B-RAF xenograft models of melanoma and colon carcinoma; assay: Tumor growth in V600E B-RAF xenograft models; details: for tumor growth: compared to vehicle-treated mice, several V600E B-RAF xenograft models of melanoma and colon carcinoma; for cyclin D and Ki-67 in tumor samples: western blot and immunohistochemistry of xenograft tumor samples
# [2] = test system: V600E BRAF tumor cell lines; assay: Treatment of B-RAF mutant tumor cell lines and xenograft models with MEK inhibitors (cyclin D, RB, cell cycle, proliferation); type: cell-based; details: tumor cell lines and xenograft models with activating B-RAF mutation (V600E BRAF)
# Source text: Eleven cells lines, including five BRAF mutants, are characterized by their tissue of lineage and mechanism of MAPK activation, were used for the experiments described herein, and are listed in Table 2.
# [3] = test system: HER2/EGFR (WT BRAF) tumors; assay: Response of HER2/EGFR (WT BRAF) tumors to MEK inhibition, in vitro assays and xenograft models; type: cell-based; details: for effectiveness at expected target, phosphorylated MAPK: WT BRAF group compared with V600E BRAF tumors; for sensitivity of tumors with high MAPK activity under the control of activated receptors: in vitro assays and xenograft models
# Source text: Eleven cells lines, including five BRAF mutants, are characterized by their tissue of lineage and mechanism of MAPK activation, were used for the experiments described herein, and are listed in Table 2. All the cell lines have high levels of MAPK activity.
# [4] = test system: SkMel 5, SkMel 19, and Colo205; assay: Western blot of relative protein expression after MEK inhibitor; type: cell-based; details: 50 nM, as a function of time; three V600E BRAF cell lines
# Procedure: Following protein isolation using NP40 1% lysis buffer, Western blot analysis was used to determine relative protein expression in cells as a function of time following exposure to MEK inhibitor (PD0325901 50 nM). […] For the Western Blot analysis, DUSP6 antibody (SantaCruz (#8598)), and SPRY2 antibody (Upstate Cell Signaling Solutions).
# [5] = test system: panel of V600E BRAF cell lines; assay: Microarray (SAM) of gene expression, MEK-inhibited versus DMSO control; type: cell-based; details: 50 nM, 8 hours, false discovery rate 9%
# Procedure: Mean expression of genes was determined for a panel of V600E BRAF cell lines in each of two conditions, MEK-inhibited (PD0325901 50 nM) or DMSO control, both at 8 hours. The panel of V600E BRAF cell lines included 5 melanoma cell lines (SkMel 1, SkMel 5, SkMel 19, SkMel 28, and MALME 3M) and two colorectal carcinoma cell lines (Colo205 and HT29).
# Significance analysis of microarray (SAM) methods were used to determine the significance of difference between the two groups of genes (using a false discovery rate of 9%). […] Expression of the genes was also presented as a heatmap representation (FIG. 3B).
# [6] = test system: SkMel 5 cells; assay: Quantitative RT-PCR of relative mRNA levels after MEK inhibitor; type: cell-based; details: 50 nM; 2, 4, 8 and 24 hrs versus time 0; SkMel 5 (V600E BRAF)
# Procedure: Quantitative RT-PCR was used to determine relative levels of mRNA in cells as a function of time following exposure to the MEK inhibitor (PD0325901 50 nM). SkMel 5 cells were treated with MEK inhibitor (PD0325901 50 nM) for the times indicated (2 hrs, 4 hrs, 8 hrs, and 24 hrs). Following total RNA extraction and an in vitro reverse transcription step, synthesized cDNA was used in a PCR reaction containing pre-designed probe-primer sets purchased from Applied Biosystems and run on an ABI 7500 RT-PCR machine, using software supplied by Applied Biosystems. Relative levels of mRNA compared to the reference sample (time 0) were determined using the ΔΔCT calculation, using HPRT as a housekeeping gene for normalization. In brief, each gene for each sample is assigned a value based on the number of PCR amplification cycles required for the amplified gene product to cross a detection threshold (i.e., a gene detectable at 25 amplification cycles is present in greater starting quantity than a gene product detectable at 30 cycles). The cycle value for each sample for the gene of interest is subtracted from the cycle value for a reference sample (untreated, or time 0), and this value is the delta CT for the gene of interest. […] This is the delta CT for the housekeeping gene. The delta CT (housekeeping gene) is subtracted from the delta CT (gene of interest), and this is the delta delta CT. […]
# [7] = test system: SkMel 28 cells; assay: Affymetrix U133A 2.0 gene expression time course after MEK inhibitor; type: cell-based; details: 50 nM
# Procedure: SkMel 28 cells (a melanoma cell line with the V600E BRAF mutation) were treated with the MEK inhibitor, PD0325901 (50 nM), for 2, 8, or 24 hours, or no treatment at all (=time 0 hours). Total cellular RNA was analyzed using an Affymetrix U133A 2.0 platform. Pairwise comparisons of gene expression at each individual time point to reference sample (time 0 hours) were performed, and genes were selected using a threshold of two-fold or greater change in either direction. […] Thus, genes which changed greater than or equal to two-fold in either direction in response to PD0325901 compared to control were identified at three time points following MEK inhibition. All genes were assigned to a functional class based on biological process, according to Gene Ontology (GO) classification (FIG. 2). The number of genes changing in each functional classification was assigned a p-value based on the significance of the number of genes changing given the total number of genes changed at that time point, compared to the total number of genes in the GO functional class, and the total number of genes on the chip. An enrichment score was assigned to each functional class, and was defined as the −log 10(p-value).
SMILES,tumor growth [1],cyclin D and Ki-67 in tumor samples [1],cell cycle [2],cyclin D levels [2],phosphorylation of RB [2],proliferation [2],"effectiveness at expected target, phosphorylated MAPK [3]",sensitivity of tumors with high MAPK activity under the control of activated receptors [3],relative protein expression of DUSP6 and SPRY2 [4],genes downregulated [5],genes upregulated [5],genes which change significantly in either direction ([5]; 45 probe sets),"relative mRNA levels of DUSP6, SPRY2, ETV1, ETV5, and CCND1 [6]",number of genes changing two-fold or greater in either direction ([7]; 2 hours versus time 0),number of genes changing two-fold or greater in either direction ([7]; 8 hours versus time 0),number of genes changing two-fold or greater in either direction ([7]; 24 hours versus time 0)
O=C(NOCC1CC1)c1ccc(F)c(F)c1Nc1ccc(I)cc1Cl [CI-1040],Tumor growth delay was achieved,decline in both cyclin D and Ki-67,G1 arrest,decline in cyclin D levels,hypophosphorylation of RB,inhibition of proliferation,not measurably different,resistant,–,–,–,–,–,–,–,–
O=C(NOC[C@H](O)CO)c1ccc(F)c(F)c1Nc1ccc(I)cc1F [PD0325901],Tumor growth delay was achieved,decline in both cyclin D and Ki-67,G1 arrest,decline in cyclin D levels,hypophosphorylation of RB,inhibition of proliferation,not measurably different,resistant,decrease in protein expression,31 genes,4 genes,35 genes,Decrease in mRNA levels,91 genes,327 genes,1191 genes
